Laboratory results from patent US6737383B1, “Herbicidal oxadiazolidines” (priority 1999, dated 2004).

What was measured:
[1] = system: rice; assay: Test B flood test rice; type: in vivo, Oryza sativa
Method in brief: (§1)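 Plants were grown to the 2-leaf stage before treatment with test chemical, then held in a greenhouse for twelve to sixteen days. Injury was visually rated against untreated controls on a 0–10 scale, where 0 is no effect and 10 is complete control.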

[2] = system: purple nutsedge; assay: Test B pre/postemergence purple nutsedge; type: in vivo, Cyperus rotundus
Method in brief: (§2)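 Herbicidal effect was estimated by eye on a ten-point control scale after plants spent twelve to sixteen days in a greenhouse following soil or foliar treatment. Foliar sprays targeted plants at one to four leaves; all doses were formulated in a non-phytotoxic solvent with surfactant.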

[3] = system: pigweed; assay: Test B pre/postemergence pigweed; type: in vivo, Amaranthus retroflexus
Method in brief: as §2

[4] = system: giant foxtail; assay: Test B pre/postemergence giant foxtail; type: in vivo, Setaria faberii
Method in brief: as §2

[5] = system: duck salad; assay: Test B flood test duck salad; type: in vivo, Heteranthera limosa
Method in brief: as §1

[6] = system: wheat; assay: Test B pre/postemergence wheat; type: in vivo, Triticum aestivum
Method in brief: as §2

[7] = system: crabgrass; assay: Test B pre/postemergence crabgrass; type: in vivo, Digitaria sanguinalis
Method in brief: as §2

[8] = system: surinam grass; assay: Test B pre/postemergence surinam grass; type: in vivo, Brachiaria decumbens
Method in brief: as §2

[9] = system: morningglory; assay: Test B pre/postemergence morningglory; type: in vivo, Ipomoea hederacea
Method in brief: as §2

[10] = system: smallflower flatsedge; assay: Test B flood test smallflower flatsedge; type: in vivo, Cyperus difformis
Method in brief: as §1

[11] = system: corn; assay: Test B pre/postemergence corn; type: in vivo, Zea mays
Method in brief: as §2

[12] = system: soybean; assay: Test B pre/postemergence soybean; type: in vivo, Glycine max
Method in brief: as §2

[13] = system: bedstraw; assay: Test B pre/postemergence bedstraw; type: in vivo, Galium aparine; conditions: Preemergence
Method in brief: as §2

[14] = system: velvetleaf; assay: Test B pre/postemergence velvetleaf; type: in vivo, Abutilon theophrasti
Method in brief: as §2

[15] = system: blackgrass; assay: Test B pre/postemergence blackgrass; type: in vivo, Alopecurus myosuroides
Method in brief: as §2

[16] = system: wild oat; assay: Test B pre/postemergence wild oat; type: in vivo, Avena fatua
Method in brief: as §2

[17] = Rate 62 g/ha, flood test species, Pre-emergence, visual evaluation after twelve to sixteen days
[18] = Rate 125 g/ha, under heading Pre-emergence, flood test species, visual evaluation after twelve to sixteen days
[19] = Rate 250 g/ha, Pre-emergence (flood test species), scale 0 to 10, 0 is no effect, 10 is complete control
[20] = Rate 500 g/ha, Pre-emergence section of Table B, 0 to 10 scale (0 no effect, 10 complete control)
[21] = Postemergence, Rate 62 g/ha, scale 0 to 10, 0 is no effect, 10 is complete control
[22] = Postemergence, Rate 250 g/ha, scale of 0 to 10, 0 is no effect, 10 is complete control
[23] = Preemergence, Rate 62 g/ha, scale 0 to 10 (0 no effect, 10 complete control)
[24] = Preemergence, Rate 125 g/ha, scale of 0 to 10 where 0 is no effect and 10 is complete control
[25] = Preemergence, Rate 250 g/ha, scale 0 to 10 (0 no effect, 10 complete control)
[26] = Preemergence, Rate 500 g/ha, scale of 0 to 10 where 0 is no effect and 10 is complete control
[27] = Postemergence, Rate 125 g/ha, scale of 0 to 10 where 0 is no effect and 10 is complete control
[28] = Postemergence, Rate 500 g/ha, scale of 0 to 10 where 0 is no effect and 10 is complete control

COCCn1c(=O)on(C(=O)N(c2ccc(F)cc2)C(C)C)c1=O [Compound 627]
Plant response rating, Rice (0 to 10 scale, 0 is no effect, 10 is complete control) [1, 17]: 0 | Rice plant response rating (0 to 10 scale, 0 is no effect, 10 is complete control) [1, 18]: 0 | Rice plant response rating [1, 19]: 0 | Rice plant response rating [1, 20]: 0 | Plant response rating, Nutsedge [2, 21]: 3 | Nutsedge plant response rating [2, 22]: 6 | Nutsedge plant response rating [2, 23]: 7 | Nutsedge plant response rating [2, 24]: 7 | Plant response rating, Nutsedge [2, 25]: 7 | Plant response rating, Nutsedge [2, 26]: 10 | Plant response rating, Redroot pigweed [3, 21]: 2 | Plant response rating, Redroot pigweed [3, 27]: 3 | Redroot pigweed plant response rating [3, 22]: 6 | Redroot pigweed plant response rating [3, 23]: 9 | Redroot pigweed plant response rating [3, 24]: 9 | Plant response rating, Redroot pigweed [3, 25]: 10 | Plant response rating, Redroot pigweed [3, 26]: 10 | Plant response rating, Giant foxtail [4, 21]: 9 | Giant foxtail plant response rating [4, 22]: 9 | Plant response rating, Giant foxtail [4, 28]: 9 | Giant foxtail plant response rating [4, 23]: 9 | Giant foxtail plant response rating [4, 24]: 10 | Plant response rating, Giant foxtail [4, 25]: 10 | Plant response rating, Giant foxtail [4, 26]: 10 | Plant response rating, Ducksalad (0 to 10 scale, 0 is no effect, 10 is complete control) [5, 17]: 0 | Ducksalad plant response rating (0 to 10 scale, 0 is no effect, 10 is complete control) [5, 18]: 0 | Ducksalad plant response rating [5, 19]: 0 | Ducksalad plant response rating [5, 20]: 1 | Plant response rating, Wheat [6, 21]: 2 | Plant response rating, Wheat [6, 27]: 3 | Wheat plant response rating [6, 22]: 6 | Wheat plant response rating [6, 23]: 0 | Wheat plant response rating [6, 24]: 0 | Plant response rating, Wheat [6, 25]: 7 | Plant response rating, Wheat [6, 26]: 5 | Plant response rating, Crabgrass [7, 21]: 8 | Plant response rating, Crabgrass [7, 27]: 8 | Crabgrass plant response rating [7, 22]: 9 | Plant response rating, Crabgrass [7, 28]: 9 | Crabgrass plant response rating [7, 23]: 7 | Crabgrass plant response rating [7, 24]: 8 | Plant response rating, Crabgrass [7, 25]: 9 | Plant response rating, Crabgrass [7, 26]: 9 | Plant response rating, B. signalgrass [8, 21]: 3 | Plant response rating, B. signalgrass [8, 27]: 7 | B. signalgrass plant response rating [8, 22]: 7 | Plant response rating, B. signalgrass [8, 28]: 8 | B. signalgrass plant response rating [8, 23]: 5 | B. signalgrass plant response rating [8, 24]: 5 | Plant response rating, B. signalgrass [8, 25]: 8 | Plant response rating, B. signalgrass [8, 26]: 9 | Plant response rating, Morningglory [9, 21]: 3 | Plant response rating, Morningglory [9, 27]: 6 | Morningglory plant response rating [9, 22]: 6 | Plant response rating, Morningglory [9, 28]: 6 | Morningglory plant response rating [9, 23]: 6 | Morningglory plant response rating [9, 24]: 6 | Plant response rating, Morningglory [9, 25]: 6 | Plant response rating, Morningglory [9, 26]: 8 | Plant response rating, S. Flatsedge (0 to 10 scale, 0 is no effect, 10 is complete control) [10, 17]: 0 | S. Flatsedge plant response rating (0 to 10 scale, 0 is no effect, 10 is complete control) [10, 18]: 0 | S. Flatsedge plant response rating [10, 19]: 0 | S. Flatsedge plant response rating [10, 20]: 3 | Plant response rating, Corn [11, 21]: 0 | Plant response rating, Corn [11, 27]: 3 | Corn plant response rating [11, 22]: 7 | Plant response rating, Corn [11, 28]: 8 | Corn plant response rating [11, 23]: 3 | Corn plant response rating [11, 24]: 4 | Plant response rating, Corn [11, 25]: 6 | Plant response rating, Corn [11, 26]: 9 | Plant response rating, Soybean [12, 21]: 2 | Plant response rating, Soybean [12, 27]: 4 | Soybean plant response rating [12, 22]: 4 | Soybean plant response rating [12, 23]: 0 | Soybean plant response rating [12, 24]: 0 | Plant response rating, Soybean [12, 25]: 0 | Plant response rating, Soybean [12, 26]: 5 | Bedstraw plant response rating ([13]; Rate 62 g/ha, scale 0 to 10 (0 no effect, 10 complete control)): 2 | Bedstraw plant response rating ([13]; Rate 125 g/ha, scale of 0 to 10 where 0 is no effect and 10 is complete control): 2 | Plant response rating, Bedstraw ([13]; Rate 250 g/ha, scale 0 to 10 (0 no effect, 10 complete control)): 8 | Plant response rating, Bedstraw ([13]; Rate 500 g/ha, scale of 0 to 10 where 0 is no effect and 10 is complete control): 8 | Plant response rating, Velvetleaf [14, 21]: 3 | Plant response rating, Velvetleaf [14, 27]: 4 | Velvetleaf plant response rating [14, 22]: 8 | Velvetleaf plant response rating [14, 23]: 7 | Velvetleaf plant response rating [14, 24]: 8 | Plant response rating, Velvetleaf [14, 25]: 10 | Plant response rating, Velvetleaf [14, 26]: 10 | Plant response rating, Blackgrass [15, 21]: 8 | Plant response rating, Blackgrass [15, 27]: 8 | Blackgrass plant response rating [15, 22]: 9 | Plant response rating, Blackgrass [15, 28]: 9 | Blackgrass plant response rating [15, 23]: 8 | Blackgrass plant response rating [15, 24]: 8 | Plant response rating, Blackgrass [15, 25]: 9 | Plant response rating, Blackgrass [15, 26]: 10 | Plant response rating, Wild oats [16, 21]: 0 | Plant response rating, Wild oats [16, 27]: 2 | Wild oats plant response rating [16, 22]: 6 | Wild oats plant response rating [16, 23]: 0 | Wild oats plant response rating [16, 24]: 3 | Plant response rating, Wild oats [16, 25]: 5 | Plant response rating, Wild oats [16, 26]: 5
